In patent publication US12616676B2, “Preparation method and use of modified hydrophobic excipient” (ZHEJIANG ZHIDA PHARMACEUTICAL CO., LTD., priority 2019, dated 2026):
Where two headings read alike, the source gives them in different places.

Test: solubility of paclitaxel in olive oil, castor oil and hydrophobic excipients (crystal formation after drying)
Assay type: physicochemical
Experimental: The specific experimental method was as follows. […] The chloroform solution was mixed with 0.5 ml of chloroform, from which 0.5 ml of diluent was taken and two-fold serial dilution was performed by using chloroform. Then 0.5 ml of a chloroform solution of paclitaxel (10 mg/ml) was added to the above-mentioned sample after the two-fold serial dilution, and then left in a hood to be naturally volatilized overnight. Crystal formation in the dried sample was observed and recorded.

solubility of paclitaxel (crystal formation in the dried sample) | Compound | solubility of paclitaxel compared with olive oil and castor oil (data comparison in table 1) | solubility of paclitaxel (crystal formation in the dried sample) (hydrophobic excipient 0.98 mg, 0.5 ml chloroform solution of paclitaxel (10 mg/ml), volatilized overnight) | solubility of paclitaxel (crystal formation in the dried sample) (hydrophobic excipient 1.95 mg, 0.5 ml chloroform solution of paclitaxel (10 mg/ml), volatilized overnight) | solubility of paclitaxel (crystal formation in the dried sample) (hydrophobic excipient 3.90 mg, 0.5 ml chloroform solution of paclitaxel (10 mg/ml), volatilized overnight) | solubility of paclitaxel (crystal formation in the dried sample) (hydrophobic excipient 7.81 mg, 0.5 ml chloroform solution of paclitaxel (10 mg/ml), volatilized overnight) | solubility of paclitaxel (crystal formation in the dried sample) (hydrophobic excipient 15.65 mg, 0.5 ml chloroform solution of paclitaxel (10 mg/ml), volatilized overnight) | solubility of paclitaxel (crystal formation in the dried sample) (hydrophobic excipient 31.30 mg, 0.5 ml chloroform solution of paclitaxel (10 mg/ml), volatilized overnight) | solubility of paclitaxel (crystal formation in the dried sample) (hydrophobic excipient 62.50 mg, 0.5 ml chloroform solution of paclitaxel (10 mg/ml), volatilized overnight) | solubility of paclitaxel (crystal formation in the dried sample) (hydrophobic excipient 125.00 mg, 0.5 ml chloroform solution of paclitaxel (10 mg/ml), volatilized overnight) | solubility of paclitaxel (crystal formation in the dried sample) (hydrophobic excipient 250.00 mg, 0.5 ml chloroform solution of paclitaxel (10 mg/ml), volatilized overnight)
+ | castor oil |  |  |  |  |  |  |  |  |  | 
 | CCCCCCCC/C=C\CCCCCCCCNC(=O)CC[C@@H](C)[C@H]1CC[C@H]2[C@@H]3[C@H](OC(=O)CNC(=O)[C@H](CCCCNC(=O)OC(C)(C)C)NC(=O)OCC4c5ccccc5-c5ccccc54)C[C@@H]4C[C@H](OC(=O)CNC(=O)[C@H](CCCCNC(=O)OC(C)(C)C)NC(=O)OCC5c6ccccc6-c6ccccc65)CC[C@]4(C)[C@H]3C[C@H](OC(=O)CNC(=O)[C@H](CCCCNC(=O)OC(C)(C)C)NC(=O)OCC3c4ccccc4-c4ccccc43)[C@]12C [Example 4] | greater than that in olive oil and castor oil | + | + | + | +/− | − | − | − | − | −
